Experiment [1] deals with T1, c-Met (Homo sapiens, UniProt P08581). Kind of experiment: cell-free Z-LYTE Tyr6 peptide kinase assay, dose-response. It is filed as biochemical.
Experiment [2] deals with T1, c-Met. Kind of experiment: cell-free Z-LYTE Tyr6 peptide kinase assay, positive control measured by the authors. It is filed as biochemical.

Structures are written as SMILES.

T1 sequence (P08581 25-307): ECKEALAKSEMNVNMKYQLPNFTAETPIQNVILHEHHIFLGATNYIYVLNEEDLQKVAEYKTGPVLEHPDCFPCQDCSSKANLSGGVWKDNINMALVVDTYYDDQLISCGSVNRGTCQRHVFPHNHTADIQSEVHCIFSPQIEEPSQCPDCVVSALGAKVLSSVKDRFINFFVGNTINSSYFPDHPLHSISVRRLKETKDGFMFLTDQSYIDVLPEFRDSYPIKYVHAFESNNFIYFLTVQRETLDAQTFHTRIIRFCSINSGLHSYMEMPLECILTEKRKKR
T1 sequence (P08581 308-1390): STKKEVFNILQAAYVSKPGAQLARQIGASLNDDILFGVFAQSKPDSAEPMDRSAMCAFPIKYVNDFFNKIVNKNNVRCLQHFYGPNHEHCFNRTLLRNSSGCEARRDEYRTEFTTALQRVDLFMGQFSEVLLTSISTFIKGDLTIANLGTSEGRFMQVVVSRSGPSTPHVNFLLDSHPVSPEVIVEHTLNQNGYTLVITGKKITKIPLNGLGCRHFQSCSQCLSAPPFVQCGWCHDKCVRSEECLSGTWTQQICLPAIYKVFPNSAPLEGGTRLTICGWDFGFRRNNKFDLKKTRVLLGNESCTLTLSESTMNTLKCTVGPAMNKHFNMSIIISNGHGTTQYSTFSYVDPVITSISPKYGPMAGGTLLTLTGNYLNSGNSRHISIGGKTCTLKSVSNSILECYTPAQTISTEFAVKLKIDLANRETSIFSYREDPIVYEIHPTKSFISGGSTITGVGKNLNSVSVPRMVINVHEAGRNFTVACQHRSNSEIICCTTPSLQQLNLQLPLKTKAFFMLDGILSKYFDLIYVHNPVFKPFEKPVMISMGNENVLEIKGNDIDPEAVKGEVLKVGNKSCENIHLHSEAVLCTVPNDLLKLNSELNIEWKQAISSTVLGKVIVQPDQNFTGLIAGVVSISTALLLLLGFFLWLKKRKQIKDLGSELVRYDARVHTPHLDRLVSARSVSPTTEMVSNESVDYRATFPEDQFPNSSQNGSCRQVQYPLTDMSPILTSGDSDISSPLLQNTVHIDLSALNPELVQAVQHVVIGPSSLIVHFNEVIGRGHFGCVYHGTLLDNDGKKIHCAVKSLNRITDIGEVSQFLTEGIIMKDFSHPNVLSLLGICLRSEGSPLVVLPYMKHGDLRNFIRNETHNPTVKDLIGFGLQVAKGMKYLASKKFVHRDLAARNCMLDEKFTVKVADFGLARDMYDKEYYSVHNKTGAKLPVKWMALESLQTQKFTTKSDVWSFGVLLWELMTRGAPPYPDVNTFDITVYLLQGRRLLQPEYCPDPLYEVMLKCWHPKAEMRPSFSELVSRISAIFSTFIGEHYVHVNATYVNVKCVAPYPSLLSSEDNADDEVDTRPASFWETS

As to `O[C@]12CCCCCC[C@@H]3CCN4CCC[C@](O)(CCCCCC[C@@H]5CCN(CCC1)[C@H]2O5)[C@@H]4O3` [ARG C, Araguspongine C], the 50% inhibitory concentration (IC50) against c-Met [1] is 19.9 µM.

The compound `C/C=C(/C=O)[C@@H](CC=O)CC(=O)OCCc1ccc(O)cc1` [OC, (−)-Oleocanthal] returned an IC50 on c-Met [2] of 5 µM. This lies in the single-digit micromolar range.

The IC50 is the concentration that gives 50% inhibition. Higher therefore signals weaker potency.

For the origin of these results see publication PMC4306938, “Araguspongine C Induces Autophagic Death in Breast Cancer Cells through Suppression of c-Met and HER2 Receptor Tyrosine Kinase Signaling” (Marine Drugs, 2015).
